{"source": "paper PMC4505687", "about": "“5-HT3 Receptor Brain-Type B-Subunits are Differentially Expressed in Heterologous Systems” (ACS Chemical Neuroscience, 2015)", "key": {"[1]": {"test_system": "5-HT3 receptors (5-HT3A, 5-HT3AB, 5-HT3ABr1, 5-HT3ABr2)", "assay": "Competition binding against [3H]granisetron at different 5-HT3 receptors expressed in HEK293 cells", "experimental": "Transfected HEK 293 cells were scraped into 1 mL of ice-cold HEPES buffer (10 mM, pH 7.4) and frozen. […] For competition binding (8 point), reactions were incubated for at least 1 h at 4 °C. Reactions were terminated by vacuum filtration using a Brandel cell harvester onto GF/B filters presoaked in 0.3% polyethylenimine. Radioactivity was determined by scintillation counting using a Beckman BCLS6500 instrument (Fullerton, CA). Individual competition binding experiments were analyzed by iterative curve fitting using Prism."}, "5-HT3ABr2 receptors [2]": {"biological_target": "T1, 5-HT3ABr2 receptors (Homo sapiens, UniProt P46098)", "T1 construct": "expressed in transfected cells; host or cells: Xenopus laevis oocytes (cRNA from pGEMHE) or HEK293 cells (pcDNA3.1), A:Br2 ratio 1:3 unless otherwise stated", "T1 sequence (P46098 24-478)": "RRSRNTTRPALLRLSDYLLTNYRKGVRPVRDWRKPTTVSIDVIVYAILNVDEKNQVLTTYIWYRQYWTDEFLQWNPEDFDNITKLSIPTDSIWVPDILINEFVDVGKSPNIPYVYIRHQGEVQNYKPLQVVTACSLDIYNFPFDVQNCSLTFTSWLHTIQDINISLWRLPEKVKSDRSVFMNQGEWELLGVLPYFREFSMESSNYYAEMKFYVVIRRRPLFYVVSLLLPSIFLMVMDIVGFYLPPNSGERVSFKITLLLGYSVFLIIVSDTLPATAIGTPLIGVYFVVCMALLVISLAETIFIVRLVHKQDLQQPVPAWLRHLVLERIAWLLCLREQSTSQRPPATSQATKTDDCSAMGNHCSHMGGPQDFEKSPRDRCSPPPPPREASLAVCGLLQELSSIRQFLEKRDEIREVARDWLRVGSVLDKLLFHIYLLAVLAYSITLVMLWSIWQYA", "assay": "5-HT-induced macroscopic currents, two-electrode voltage-clamp in Xenopus oocytes", "format": "cell-based", "protocol": "(§1) Xenopus laevis oocyte-positive females were purchased from NASCO (Fort Atkinson, WI) and maintained according to standard methods. Harvested stage V–VI Xenopus oocytes were washed in four changes of Ca-free ND96 (96 mM NaCl, 2 mM KCl, 1 mM MgCl2, 5 mM HEPES, pH 7.5), defolliculated in 1.5 mg mL^–1 collagenase Type 1A for approximately 2 h, washed again in four changes of ND96, and then stored in ND96 containing 2.5 mM sodium pyruvate, […] gentamycin, and 0.7 mM theophylline.\n(§2) cDNA was cloned into pGEMHE for oocyte expression, and pcDNA3.1 (Invitrogen, Paisley, U.K.) for expression in HEK 293 cells. Mutagenesis (Figure 1) was performed using QuikChange (Agilent Technologies Inc., Santa Clara, CA). cRNA was in vitro transcribed from linearized pGEMHE cDNA template using the mMessage mMachine T7 Transcription kit (Ambion, Austin, TX). 5-HT3A was linearized with SphI and 5-HT3B cDNA with NheI. Stage V and VI oocytes were injected with 50 nL of ∼400 ng μL^–1 cRNA, and currents were recorded 1–4 days postinjection. Ratios of 1:3 (5-HT3A:5-HT3B/5-HT3Br1/5-HT3Br2) were used for the expression of heteromeric receptors unless otherwise stated.\n(§3) Currents were recorded at a frequency of 5 kHz and filtered at 1 kHz. Microelectrodes were fabricated from borosilicate glass (GC120TF-10, Harvard Apparatus, Edenbridge, Kent, U.K.) using a one stage horizontal pull (P-87, Sutter Instrument Company, Novato, CA) and filled with 3 M KCl. Pipet resistances ranged from 1.0 to 2.0 MΩ. […] Drug application was via a simple gravity fed system calibrated to run at the same rate."}, "5-HT3A receptors [3]": {"biological_target": "T2, 5-HT3A receptors (Homo sapiens, UniProt P46098)", "T2 construct": "expressed in transfected cells; host or cells: Xenopus laevis oocytes (cRNA from pGEMHE) or HEK293 cells (pcDNA3.1)", "T2 sequence (P46098 24-478)": "T1 sequence (P46098 24-478)", "settings": "cited from earlier work"}, "5-HT3ABr1 receptors [4]": {"biological_target": "T3, 5-HT3ABr1 receptors (Homo sapiens, UniProt O95264+P46098)", "T3 sequence (P46098 24-478)": "T1 sequence (P46098 24-478)", "T3 sequence (O95264 1-430 isoform O95264-2)": "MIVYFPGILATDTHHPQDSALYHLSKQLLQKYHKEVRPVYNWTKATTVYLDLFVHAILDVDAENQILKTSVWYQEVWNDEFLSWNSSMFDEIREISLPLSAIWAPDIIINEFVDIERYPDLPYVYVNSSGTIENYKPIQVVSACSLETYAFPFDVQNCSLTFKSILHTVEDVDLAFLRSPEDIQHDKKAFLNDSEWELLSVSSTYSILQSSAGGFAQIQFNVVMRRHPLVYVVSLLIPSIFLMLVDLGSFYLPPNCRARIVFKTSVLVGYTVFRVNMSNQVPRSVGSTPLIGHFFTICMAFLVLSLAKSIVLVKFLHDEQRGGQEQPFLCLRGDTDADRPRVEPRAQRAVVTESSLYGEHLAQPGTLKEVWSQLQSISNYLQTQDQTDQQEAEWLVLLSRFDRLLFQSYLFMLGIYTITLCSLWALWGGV", "assay": "5-HT-induced macroscopic currents, two-electrode voltage-clamp in Xenopus oocytes", "format": "cell-based", "settings": "Hill slope, 5-HT3ABr1 receptors in oocytes", "protocol": "as §1, §2, §3"}, "5-HT3A receptors [5]": {"biological_target": "T2, 5-HT3A receptors", "assay": "5-HT-induced macroscopic currents, two-electrode voltage-clamp in Xenopus oocytes", "format": "cell-based", "settings": "Hill slope, 5-HT3A receptors in oocytes", "protocol": "as §1, §2, §3"}, "5-HT3AB receptors [6]": {"biological_target": "T4, 5-HT3AB receptors (Homo sapiens, UniProt O95264+P46098)", "T4 construct": "expressed in transfected cells; host or cells: Xenopus laevis oocytes (cRNA from pGEMHE) or HEK293 cells (pcDNA3.1), A:B ratio 1:3", "T4 sequence (P46098 24-478)": "T1 sequence (P46098 24-478)", "T4 sequence (O95264 22-441)": "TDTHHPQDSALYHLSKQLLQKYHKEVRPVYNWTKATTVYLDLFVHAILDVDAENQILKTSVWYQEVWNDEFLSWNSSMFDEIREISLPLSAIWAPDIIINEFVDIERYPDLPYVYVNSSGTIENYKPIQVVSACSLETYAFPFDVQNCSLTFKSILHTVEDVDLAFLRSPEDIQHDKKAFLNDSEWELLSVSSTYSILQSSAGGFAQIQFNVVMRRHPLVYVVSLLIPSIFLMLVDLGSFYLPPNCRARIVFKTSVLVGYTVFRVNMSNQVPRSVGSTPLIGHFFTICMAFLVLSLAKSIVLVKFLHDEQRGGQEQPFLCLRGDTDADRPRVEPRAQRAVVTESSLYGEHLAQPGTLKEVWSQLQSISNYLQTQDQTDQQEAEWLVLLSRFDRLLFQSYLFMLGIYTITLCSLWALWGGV", "assay": "5-HT-induced macroscopic currents, two-electrode voltage-clamp in Xenopus oocytes", "format": "cell-based", "settings": "Hill slope, 5-HT3AB receptors in oocytes", "protocol": "as §1, §2, §3"}, "5-HT3ABr1 receptors [7]": {"biological_target": "T3, 5-HT3ABr1 receptors", "assay": "Fluorescent membrane potential dye (FlexStation) in transfected HEK293 cells", "format": "cell-based", "settings": "Hill slope, 5-HT3ABr1 receptors in HEK293 cells, mean ± SEM", "protocol": "(§4) Human embryonic kidney (HEK) 293 cells were maintained on 90 mm tissue culture plates at 37 °C and 7% CO2 in a humidified atmosphere. They were cultured in DMEM:F12 with GlutaMAX I media (Dulbecco’s modified Eagle’s Medium/Nutrient Mix F12 (1:1), Invitrogen, Paisley, U.K.) containing 10% fetal calf serum. Cells in 90 mm dishes were transfected using polyethylenimine (PEI). Then 30 μL of PEI (1 mg/mL), 4 μL of cDNA (1 mg/mL) and 1 mL of DMEM were incubated for 10 min at room temperature, added dropwise to a 80–90% confluent plate, and incubated for 2–3 days. For Flexstation studies, cells were transferred to 96-well plates and allowed to adhere overnight before use.\nas §2, with “[…] This was as previously described.[22] […] The cells” for “Ratios of 1:3 (5-HT3A:5-HT3B/5-HT3Br1/5-HT3Br2)”, “incubated at 37 °C” for “used”, “45 min, and then fluorescence was measured in a FlexStation (Molecular Devices) at 2 s intervals for 200 s. […] Analysis and curve fitting was performed using Prism (GraphPad Software, San Diego, CA, www.graphpad.com).” for “the expression of heteromeric receptors unless otherwise stated.”"}, "5-HT3A receptors [8]": {"biological_target": "T2, 5-HT3A receptors", "assay": "Fluorescent membrane potential dye (FlexStation) in transfected HEK293 cells", "format": "cell-based", "settings": "Hill slope, 5-HT3A receptors in HEK293 cells, mean ± SEM", "protocol": "as §4\nas §2, with “[…] This was as previously described.[22] […] The cells” for “Ratios of 1:3 (5-HT3A:5-HT3B/5-HT3Br1/5-HT3Br2)”, “incubated at 37 °C” for “used”, “45 min, and then fluorescence was measured in a FlexStation (Molecular Devices) at 2 s intervals for 200 s. […] Analysis and curve fitting was performed using Prism (GraphPad Software, San Diego, CA, www.graphpad.com).” for “the expression of heteromeric receptors unless otherwise stated.”"}, "5-HT3AB receptors [9]": {"biological_target": "T4, 5-HT3AB receptors", "assay": "Fluorescent membrane potential dye (FlexStation) in transfected HEK293 cells", "format": "cell-based", "settings": "Hill slope, 5-HT3AB receptors in HEK293 cells, mean ± SEM", "protocol": "as §4\nas §2, with “[…] This was as previously described.[22] […] The cells” for “Ratios of 1:3 (5-HT3A:5-HT3B/5-HT3Br1/5-HT3Br2)”, “incubated at 37 °C” for “used”, “45 min, and then fluorescence was measured in a FlexStation (Molecular Devices) at 2 s intervals for 200 s. […] Analysis and curve fitting was performed using Prism (GraphPad Software, San Diego, CA, www.graphpad.com).” for “the expression of heteromeric receptors unless otherwise stated.”"}, "5-HT3ABr2 receptors [10]": {"biological_target": "T1, 5-HT3ABr2 receptors", "assay": "Fluorescent membrane potential dye (FlexStation) in transfected HEK293 cells", "format": "cell-based", "settings": "Hill slope, 5-HT3ABr2 receptors in HEK293 cells, mean ± SEM", "protocol": "as §4\nas §2, with “[…] This was as previously described.[22] […] The cells” for “Ratios of 1:3 (5-HT3A:5-HT3B/5-HT3Br1/5-HT3Br2)”, “incubated at 37 °C” for “used”, “45 min, and then fluorescence was measured in a FlexStation (Molecular Devices) at 2 s intervals for 200 s. […] Analysis and curve fitting was performed using Prism (GraphPad Software, San Diego, CA, www.graphpad.com).” for “the expression of heteromeric receptors unless otherwise stated.”"}, "[11]": {"settings": "competition with 1 nM [3H]granisetron, values shown only in Figure 5"}}, "note": "Where two headings read alike, the source gives them in different places. Marks after values point to notes of the source that are not given here."}
{"smiles": "NC(N)=NC(N)=Nc1cccc(Cl)c1", "note": "[mCPBG]", "values": [{"measurement": "Ki, rank order of potency and comparison between receptor subtypes", "setting": "[1]; [11]", "result": "palonosetron > granisetron > MDL-72222 > mCPBG > d-TC"}]}
{"smiles": "CN1[C@@H]2CC[C@H]1C[C@@H](OC(=O)c1cc(Cl)cc(Cl)c1)C2", "note": "[MDL-72222]", "values": [{"measurement": "Ki, rank order of potency and comparison between receptor subtypes", "setting": "[1]; [11]", "result": "palonosetron > granisetron > MDL-72222 > mCPBG > d-TC"}]}
{"smiles": "COc1cc2c3cc1Oc1cc(ccc1O)C[C@@H]1c4c(cc(OC)c(O)c4Oc4ccc(cc4)C[C@@H]3N(C)CC2)CC[N+]1(C)C", "note": "[d-TC, d-tubocurarine]", "values": [{"measurement": "Ki, rank order of potency and comparison between receptor subtypes", "setting": "[1]", "result": "palonosetron > granisetron > MDL-72222 > mCPBG > d-TC"}]}
{"smiles": "C=C(C)[C@@H]1[C@H]2OC(=O)[C@@H]1[C@]1(O)C[C@H]3O[C@]34C(=O)O[C@H]2[C@]14C", "note": "[picrotoxinin]", "values": [{"measurement": "IC50", "setting": "5-HT3ABr2 receptors [2]", "result": 17, "unit": "µM"}, {"measurement": "IC50", "setting": "5-HT3A receptors [3]", "result": 11, "unit": "µM"}]}
{"smiles": "NCCc1c[nH]c2ccc(O)cc12", "note": "[5-HT, 5-hydroxytryptamine]", "values": [{"measurement": "nH", "setting": "5-HT3ABr1 receptors [4]", "result": 1.0}, {"measurement": "nH", "setting": "5-HT3A receptors [5]", "result": 2.6}, {"measurement": "nH", "setting": "5-HT3AB receptors [6]", "result": 1.0}, {"measurement": "nH, parameters from functional data", "setting": "5-HT3ABr1 receptors [7]", "result": "1.5 ± 0.3 ^b"}, {"measurement": "nH, parameters from functional data", "setting": "5-HT3A receptors [8]", "result": "3.6 ± 0.8"}, {"measurement": "nH, parameters from functional data", "setting": "5-HT3AB receptors [9]", "result": "1.3 ± 0.2 ^b"}, {"measurement": "nH, parameters from functional data", "setting": "5-HT3ABr2 receptors [10]", "result": "2.9 ± 0.4 ^c"}]}
{"smiles": "O=C1c2cccc3c2[C@H](CCC3)CN1[C@@H]1CN2CCC1CC2", "note": "[palonosetron]", "values": [{"measurement": "Ki, rank order of potency and comparison between receptor subtypes", "setting": "[1]; [11]", "result": "palonosetron > granisetron > MDL-72222 > mCPBG > d-TC"}]}
